Consider 11 molecules from article PMC9316523, “Design, Synthesis and Molecular Docking of Novel Acetophenone-1,2,3-Triazoles Containing Compounds as Potent Enoyl-Acyl Carrier Protein Reductase (InhA) Inhibitors” (Pharmaceuticals, 2022).

Values after ≈ are worked out from the molar mass of the structure shown. Like-named read-outs stand apart in the source and are kept apart here.

The target in data set [1] is T1, M. tuberculosis InhA (Mycobacterium tuberculosis, UniProt P9WGR1).
T1 construct: made in house; host or cells: E. coli
The experiment in a line: InhA enzymatic inhibition assay (NADH oxidation at 340 nm). It counts as biochemical.

The test system of data set [2] is Mycobacterium tuberculosis. As to conditions: cited from earlier work.
For data set [3], the target named is enoyl-acyl carrier protein reductase InhA enzyme. Details: method as in PMID 32987135. The note with it: cited from earlier work.
[4] abbreviates: 70 nM InhA, 2 h pre-incubation, 25 °C, pH 6.8, read-out: InhA inhibition IC50.

T1 sequence (P9WGR1 whole entry, looked up): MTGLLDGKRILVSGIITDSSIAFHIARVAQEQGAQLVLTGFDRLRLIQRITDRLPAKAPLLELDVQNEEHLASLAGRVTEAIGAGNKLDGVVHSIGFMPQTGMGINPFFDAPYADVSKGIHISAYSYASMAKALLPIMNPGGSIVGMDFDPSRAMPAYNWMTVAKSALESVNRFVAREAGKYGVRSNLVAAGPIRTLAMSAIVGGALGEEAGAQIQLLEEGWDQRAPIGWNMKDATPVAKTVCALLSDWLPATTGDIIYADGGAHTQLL

On to `CC(=O)c1ccc(OCc2cn(CC(=O)NCc3ccc(C)cc3)nn2)cc1` [Compound 13, 2-(4-((4-Acetylphenoxy)methyl)-1H-1,2,3-triazol-1-Yl)-N-(4-methylbenzyl)acetamide], for which the melting point (as a rule, the temperature, or range, at which the solid turns liquid) fell in the range of 180 to 182 °C. For the same molecule, the IC50 (as a rule, the concentration needed to halve the response being measured) in data set [1] (setting [4]) stood at 0.084 µM. Also, the inhibition (usually the share of the control response that was lost under treatment) at 10 µM in data set [1] came to 100%.
Molecule `COc1ccc(CNC(=O)Cn2cc(COc3ccc(C(C)=O)cc3)nn2)cc1` [Compound 14, 2-(4-((4-Acetylphenoxy)methyl)-1H-1,2,3-triazol-1-Yl)-N-(4-methoxybenzyl)acetamide] registered a melting point of 125 to 126 °C. Moreover, in data set [1], the IC50 turned out to be 0.002 µM and the inhibition at 10 µM is 100%.
For `CC(=O)c1ccc(OCc2cn(CC(=O)Nc3ccc([N+](=O)[O-])cc3)nn2)cc1` [Compound 10, 2-(4-((4-Acetylphenoxy)methyl)-1H-1,2,3-triazol-1-Yl)-N-(4-nitrophenyl)acetamide] the same measures were 185 to 186 °C, 0.008 µM and 100%.
With `O=C(Cn1cc(-c2ccccc2)nn1)Nc1ccccc1` [Lead structure D], the minimum inhibitory concentration (MIC) (commonly the lowest concentration that inhibits growth of the organism) in data set [2] is 0.08 µg/mL (≈ 0.287 µM).
`CC(=O)c1ccc(OCc2cn(CC(=O)NCc3ccc(F)cc3)nn2)cc1` [Compound 12, 2-(4-((4-Acetylphenoxy)methyl)-1H-1,2,3-triazol-1-Yl)-N-(4-fluorobenzyl)acetamide] displayed a melting point of 165 to 166 °C. For the same molecule, in data set [1] (setting [4]), the concentration for half-maximal inhibition (IC50) amounted to 0.041 µM. The inhibition at 10 µM in data set [1] was found to be 100%.
For `CC(=O)c1ccc(OCc2cn(CC(=O)Nc3ccc(Cl)c(Cl)c3)nn2)cc1` [Compound 11, 2-(4-((4-Acetylphenoxy)methyl)-1H-1,2,3-triazol-1-Yl)-N-(3,4-dichlorophenyl)acetamide], in that order: 205 to 206 °C, 0.043 µM and 100%.
`Clc1ccc(OCc2cn(Cc3ccc(Br)cc3)nn2)cc1` [Lead structure A]: the MIC in data set [2] is 5.8 µg/mL (≈ 15.3 µM).
In the case of `CC[C@H](CO)C(=O)c1ccc(OCc2ccccc2)cc1O` [Lead structure B], in data set [3], the IC50 is 0.38 µM.
Turning to `CC(=O)c1ccc(OCc2cn(CC(=O)Nc3ccccc3F)nn2)cc1` [Compound 9, 2-(4-((4-Acetylphenoxy)methyl)-1H-1,2,3-triazol-1-Yl)-N-(2-fluorophenyl)acetamide], the melting point is 179 to 180 °C. Besides, in data set [1], the IC50 amounted to 0.005 µM and 10 µM produced 100% inhibition.
Turning to `COc1ccccc1NC(=O)Cn1cc(COc2ccc3c(c2)CCC3)nn1` [Lead structure C], in data set [2], the MIC is 6.25 µg/mL (≈ 16.5 µM).
As to `CO[C@H]1/C=C/O[C@@]2(C)Oc3c(C)c(O)c4c(O)c(c(/C=N/N5CCN(C)CC5)c(O)c4c3C2=O)NC(=O)/C(C)=C\C=C\[C@H](C)[C@H](O)[C@@H](C)[C@@H](O)[C@@H](C)[C@H](OC(C)=O)[C@@H]1C` [Rifampicin, reference compound], the IC50 in data set [1] (setting [4]) was 8.5 µM. This molecule also showed an inhibition at 10 µM in data set [1] of 58.8%.
